ChEMBL document CHEMBL1201862, “PubChem BioAssay data set” (2004)
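Each compound was tested at five concentrations against cells in 96-well plates for 48 hours. GI50: concentration for 50% inhibition of growth.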 Calls of active or inactive are those of the source. Rule as the data show it: active = GI50 up to about 1.1 µM and inactive = higher.

Key:
Assay in all cases: NCI anticancer screen, dose series, 48 h
MOLT-4 = system: MOLT-4
SW-620 = system: SW-620
SK-MEL-28 = system: SK-MEL-28
HCC 2998 = system: HCC 2998
SK-MEL-5 = system: SK-MEL-5
SN12C = system: SN12C
OVCAR-4 = system: OVCAR-4
M14 = system: M14
OVCAR-3 = system: OVCAR-3
RPMI-8226 = system: RPMI-8226
A498 = system: A498
ACHN = system: ACHN
UACC-257 = system: UACC-257
HL-60 = system: HL-60
NCI-H23 = system: NCI-H23
SR = system: SR
HCT-15 = system: HCT-15
SF-539 = system: SF-539
K562 = system: K562

| SMILES | GI50 (MOLT-4) | GI50 (SW-620) | GI50 (SK-MEL-28) | GI50 (HCC 2998) | GI50 (SK-MEL-5) | GI50 (SN12C) | GI50 (OVCAR-4) | GI50 (M14) | GI50 (OVCAR-3) | GI50 (RPMI-8226) | GI50 (A498) | GI50 (ACHN) | GI50 (UACC-257) | GI50 (HL-60) | GI50 (NCI-H23) | GI50 (SR) | GI50 (HCT-15) [µM] | GI50 (SF-539) | GI50 (K562) |
| --- | --- | --- | --- | --- | --- | --- | --- | --- | --- | --- | --- | --- | --- | --- | --- | --- | --- | --- | --- |
| Cc1ccc(/C=N/Nc2ccccn2)s1 | > 100 µM (inactive) | > 100 µM (inactive) | > 100 µM (inactive) | > 100 µM (inactive) | > 100 µM (inactive) | > 47.4 µM (inactive) | > 100 µM (inactive) | > 100 µM (inactive) | > 55.7 µM (inactive) | > 100 µM (inactive) | > 100 µM (inactive) | > 100 µM (inactive) | > 100 µM (inactive) | > 76.7 µM (inactive) | > 100 µM (inactive) | > 100 µM (inactive) | > 72.6 | > 100 µM (inactive) | – |
| CCOc1cc(C2SCC(=O)N2c2ccc3c(c2)Oc2c(Cl)c4c(c(Cl)c2=N3)Oc2cc(N3C(=O)CSC3c3ccc(O)c(OCC)c3)ccc2N=4)ccc1O (stereo not drawn) | 2.25 µM (inactive) | 54.7 µM (inactive) | 37.8 µM (inactive) | 21.9 µM (inactive) | 45.8 µM (inactive) | – | 46.3 µM (inactive) | 27.2 µM (inactive) | 26.3 µM (inactive) | 31.8 µM (inactive) | 58.5 µM (inactive) | 26.6 µM (inactive) | 80.9 µM (inactive) | 1.68 µM (inactive) | 21 µM (inactive) | 2.08 µM (inactive) | 43.1 | 14.9 µM (inactive) | 27 µM (inactive) |
| COC(=O)CCC(C)[C@H]1CCC2C3C(C[C@H](OC(C)=O)[C@@]21C)[C@@]1(C)CCC2(C[C@H]1C[C@H]3OC(C)=O)OOC1(CCCC1)OO2 (stereo partly drawn) | 4.28 µM (inactive) | 51.9 µM (inactive) | > 100 µM (inactive) | > 100 µM (inactive) | 20.2 µM (inactive) | 42.5 µM (inactive) | 12.6 µM (inactive) | > 100 µM (inactive) | 5.56 µM (inactive) | 2.47 µM (inactive) | > 100 µM (inactive) | 10.4 µM (inactive) | 39.2 µM (inactive) | 5.02 µM (inactive) | 9.18 µM (inactive) | 3.02 µM (inactive) | 27.5 | > 100 µM (inactive) | 6.3 µM (inactive) |
| O=c1cc(O)c2ccccc2o1 [4-HYDROXYCOUMARINS] | > 100 µM (inactive) | > 100 µM (inactive) | > 100 µM (inactive) | > 100 µM (inactive) | > 100 µM (inactive) | > 100 µM (inactive) | > 100 µM (inactive) | > 100 µM (inactive) | > 100 µM (inactive) | > 100 µM (inactive) | > 100 µM (inactive) | > 100 µM (inactive) | > 100 µM (inactive) | > 100 µM (inactive) | > 100 µM (inactive) | > 100 µM (inactive) | – | > 100 µM (inactive) | > 100 µM (inactive) |
